The text below walks through data of the supplement of paper PMC12137928.

Where a name gives a salt, the structure may show the parent alone.

In this experiment the test system is HCT116. As to conditions: 72 h. Summed up: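 Each well of the 1536-well plates received 250 HCT116 cells, which attached over 5 h. Luminescence was measured with CellTiter-Glo, scaled with vehicle as 0% and positive control as -100%, and pattern-corrected. A four-parameter Hill fit yielded IC50 and maximal efficacy.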

In turn, `Clc1ccc2nsnc2c1NC1=NCCN1` [Tizanidine hydrochloride] returned an IC50 cell viability (ICRF193 0 nM) of more than 45.8 µM and an IC50 cell viability (ICRF193 200 nM) of more than 45.8 µM.

`CC[C@H](C)C[C@H](C)CCCCCCCCC(=O)N[C@H]1C[C@@H](O)[C@@H](NCCN)NC(=O)[C@@H]2[C@@H](O)CCN2C(=O)[C@H]([C@H](O)CCN)NC(=O)[C@H]([C@H](O)[C@@H](O)c2ccc(O)cc2)NC(=O)[C@@H]2C[C@@H](O)CN2C(=O)[C@H]([C@@H](C)O)NC1=O` [Caspofungin Acetate]: the IC50 cell viability is more than 45.8 µM (ICRF193 0 nM) and more than 45.8 µM (ICRF193 200 nM).

As to `OC[C@H]1O[C@@H](c2ccc(F)c(Cc3cc4ccccc4s3)c2)[C@H](O)[C@@H](O)[C@@H]1O` [Ipragliflozin], the IC50 cell viability by setting is: (ICRF193 0 nM) more than 45.8 µM; (ICRF193 200 nM) more than 45.8 µM.

Consider `CC1=NN(c2ccccc2)C(=O)C1` [Edaravone], for which the IC50 cell viability runs as follows: (ICRF193 0 nM) more than 45.8 µM; (ICRF193 200 nM) more than 45.8 µM.

`CCCc1cc(C(N)=S)ccn1` [Protionamide]: the IC50 cell viability is more than 45.8 µM (ICRF193 0 nM) and more than 45.8 µM (ICRF193 200 nM).

The compound `C/C(=C\C(=O)OCCCCCCCCC(=O)O)C[C@@H]1OC[C@H](C[C@@H]2O[C@H]2[C@@H](C)[C@H](C)O)[C@@H](O)[C@H]1O` [Mupirocin] showed an IC50 cell viability (ICRF193 0 nM) of more than 45.8 µM and an IC50 cell viability (ICRF193 200 nM) of more than 45.8 µM.

Take `CCCNC(C)C(=O)Nc1ccccc1C` (centres undefined) [Prilocaine hydrochloride]: the IC50 cell viability reads like this: (ICRF193 0 nM) more than 45.8 µM; (ICRF193 200 nM) more than 45.8 µM.

Turning to `O=C(Nc1ccc(O)cc1)c1ccccc1O` [2-Hydroxy-N-(4-hydroxyphenyl)-benzamide], the IC50 cell viability (ICRF193 0 nM) is more than 45.8 µM and the IC50 cell viability (ICRF193 200 nM) is more than 45.8 µM.

In the case of `CC(=O)[C@H]1CC[C@H]2[C@@H]3CC=C4C[C@@H](O)CC[C@]4(C)[C@H]3CC[C@]12C` [Pregnenolone], the IC50 cell viability is, setting by setting: (ICRF193 0 nM) more than 45.8 µM; (ICRF193 200 nM) more than 45.8 µM.

For the compound `CN1CCN(C2=Nc3ccccc3Cc3ccccc32)CC1` [Perlapine], the IC50 cell viability reads like this: (ICRF193 0 nM) more than 45.8 µM; (ICRF193 200 nM) more than 45.8 µM.

On to `O=C(O)C(=O)O.[NH-][C@@H]1CCCC[C@H]1[NH-].[Pt+2]` [Oxaliplatin], for which the IC50 cell viability was more than 45.8 µM (ICRF193 0 nM) and more than 45.8 µM (ICRF193 200 nM).

For the compound `CCOC(=O)[N-]c1c[n+](N2CCOCC2)no1` [Molsidomine], the IC50 cell viability was more than 45.8 µM (ICRF193 0 nM) and more than 45.8 µM (ICRF193 200 nM).

`Nc1[nH]cnc2ncnc1-2` [Adenine]: the IC50 cell viability by setting is: (ICRF193 0 nM) more than 45.8 µM; (ICRF193 200 nM) more than 45.8 µM.

Turning to `COc1ccc(CNCC(O)COc2ccc3[nH]c(=O)ccc3c2)cc1OC` (centres undefined) [Toborinone], the IC50 cell viability is more than 45.8 µM (ICRF193 0 nM) and more than 45.8 µM (ICRF193 200 nM).

`Cc1cccc(Nc2ccncc2S(=O)(=O)NC(=O)NC(C)C)c1` [Torsemide]: the IC50 cell viability is more than 45.8 µM (ICRF193 0 nM) and more than 45.8 µM (ICRF193 200 nM).

On to `CCCCC(CC)CNC(=O)CC(C)OC(=O)CCC(=O)O` (centres undefined) [Butoctamide semisuccinate], for which the IC50 cell viability is more than 45.8 µM (ICRF193 0 nM) and more than 45.8 µM (ICRF193 200 nM).

Regarding `CS(=O)(=O)c1ccc(C(=O)Nc2ccc(Cl)c(-c3ccccn3)c2)c(Cl)c1` [Vismodegib], the IC50 cell viability is, setting by setting: (ICRF193 0 nM) more than 45.8 µM; (ICRF193 200 nM) more than 45.8 µM.

As to `OC[C@H]1O[C@@H](c2ccc(Cl)c(Cc3ccc(O[C@H]4CCOC4)cc3)c2)[C@H](O)[C@@H](O)[C@@H]1O`, the IC50 cell viability is, setting by setting: (ICRF193 0 nM) more than 45.8 µM; (ICRF193 200 nM) more than 45.8 µM.

With `O=C(O)CCC/C=C\CC1C(O)CC(O)C1/C=C/C(O)COc1cccc(Cl)c1` (centres undefined) [Cloprostenol (sodium salt)], the IC50 cell viability is more than 45.8 µM (ICRF193 0 nM) and more than 45.8 µM (ICRF193 200 nM).

As for `CC(C)(S)C(=O)N[C@@H](CS)C(=O)O` [Bucillamine], the IC50 cell viability is more than 45.8 µM (ICRF193 0 nM) and more than 45.8 µM (ICRF193 200 nM).

For `CCN(C)C(=O)Oc1cccc([C@H](C)N(C)C)c1` [Rivastigmine tartrate], the IC50 cell viability reads like this: (ICRF193 0 nM) more than 45.8 µM; (ICRF193 200 nM) more than 45.8 µM.

Take `CN1CCN(C(=O)O[C@H]2c3nccnc3C(=O)N2c2ccc(Cl)cn2)CC1` [Eszopiclone]: the IC50 cell viability (ICRF193 0 nM) was more than 45.8 µM and the IC50 cell viability (ICRF193 200 nM) is more than 45.8 µM.

As to `CC(=O)NC[C@H]1CN(c2ccc(N3CCOCC3)c(F)c2)C(=O)O1` [Linezolid], the IC50 cell viability is more than 45.8 µM (ICRF193 0 nM) and more than 45.8 µM (ICRF193 200 nM).

Regarding `CC(Cc1ccccc1)NCCCCl` (centres undefined) [Mefenorex], the IC50 cell viability is more than 45.8 µM (ICRF193 0 nM) and more than 45.8 µM (ICRF193 200 nM).

Consider `Fc1cccc(Br)c1NC1=NCCN1` [ROMIFIDINE], for which the IC50 cell viability reads like this: (ICRF193 0 nM) more than 45.8 µM; (ICRF193 200 nM) more than 45.8 µM.

For `COc1ccc(Cl)cc1C(=O)NCCc1ccc(S(=O)(=O)NC(=O)NC2CCCCC2)cc1` [Glybenclamide], the IC50 cell viability is more than 45.8 µM (ICRF193 0 nM) and more than 45.8 µM (ICRF193 200 nM).

As for `NCCN.[Cl][Pt][Cl]` [Dichloro(ethylenediamine)platinum(II)], the IC50 cell viability (ICRF193 0 nM) is more than 45.8 µM and the IC50 cell viability (ICRF193 200 nM) was more than 45.8 µM.

For `CCCCCCCCCCCCCCCCCC(=O)OCC(C)O` (centres undefined) [Octadecanoic acid, monoester with 1,2-propanediol], the IC50 cell viability was more than 45.8 µM (ICRF193 0 nM) and more than 45.8 µM (ICRF193 200 nM).

For `CN(C)CCN(Cc1ccccc1)c1ccccn1` [Tripelennamine citrate], the IC50 cell viability was more than 45.8 µM (ICRF193 0 nM) and more than 45.8 µM (ICRF193 200 nM).

For `CCCCc1cc2ccccc2c(OCCN(C)C)n1` [Dimethisoquin hydrochloride], the IC50 cell viability is, setting by setting: (ICRF193 0 nM) more than 45.8 µM; (ICRF193 200 nM) more than 45.8 µM.

With `CN[C@@H]1[C@@H](O)[C@@H](O[C@@H]2[C@@H](O)[C@H](O[C@H]3O[C@H](CN)CC[C@H]3N)[C@@H](N)C[C@H]2N)OC[C@]1(C)O.CN[C@@H]1[C@@H](O)[C@@H](O[C@@H]2[C@@H](O)[C@H](O[C@H]3O[C@H]([C@@H](C)N)CC[C@H]3N)[C@@H](N)C[C@H]2N)OC[C@]1(C)O.CN[C@@H]1[C@@H](O)[C@@H](O[C@@H]2[C@@H](O)[C@H](O[C@H]3O[C@H]([C@@H](C)NC)CC[C@H]3N)[C@@H](N)C[C@H]2N)OC[C@]1(C)O` [GENTAMICIN SULFATE], the IC50 cell viability runs as follows: (ICRF193 0 nM) more than 45.8 µM; (ICRF193 200 nM) more than 45.8 µM.

Take `CCN1CCCC1CNC(=O)c1cc(S(=O)(=O)CC)ccc1OC` (centres undefined) [Sultopride hydrochloride]: the IC50 cell viability was more than 45.8 µM (ICRF193 0 nM) and more than 45.8 µM (ICRF193 200 nM).

For the compound `COc1ccc2c(O[C@@H]3C[C@H]4C(=O)N[C@]5(C(=O)NS(=O)(=O)C6CC6)C[C@H]5/C=C\CCCCN(C)C(=O)[C@@H]4C3)cc(-c3nc(C(C)C)cs3)nc2c1C` [Simeprevir], the IC50 cell viability was more than 45.8 µM (ICRF193 0 nM) and more than 45.8 µM (ICRF193 200 nM).

`COc1cc(Cc2cnc(N)nc2N)cc(OC)c1OC` [Trimethoprim]: the IC50 cell viability by setting is: (ICRF193 0 nM) more than 45.8 µM; (ICRF193 200 nM) more than 45.8 µM.

The compound `Cc1c(N(C)CS(=O)(=O)O)c(=O)n(-c2ccccc2)n1C` [Dipyrone] registered an IC50 cell viability (ICRF193 0 nM) of more than 45.8 µM and an IC50 cell viability (ICRF193 200 nM) of more than 45.8 µM.

`CN1CCC(=C2c3ccccc3C=Cc3ccccc32)CC1` [Cyproheptadine hydrochloride]: the IC50 cell viability by setting is: (ICRF193 0 nM) more than 45.8 µM; (ICRF193 200 nM) more than 45.8 µM.

Regarding `NNCCc1ccccc1` [Phenelzine], the IC50 cell viability by setting is: (ICRF193 0 nM) more than 45.8 µM; (ICRF193 200 nM) more than 45.8 µM.

Take `CN1C(CCl)Nc2cc(Cl)c(S(N)(=O)=O)cc2S1(=O)=O` (centres undefined) [Methyclothiazide]: the IC50 cell viability is more than 45.8 µM (ICRF193 0 nM) and more than 45.8 µM (ICRF193 200 nM).

`CN1CCN(C(c2ccccc2)c2ccc(Cl)cc2)CC1` (centres undefined) [Chlorcyclizine] yielded an IC50 cell viability (ICRF193 0 nM) of more than 45.8 µM and an IC50 cell viability (ICRF193 200 nM) of more than 45.8 µM.

As to `CCOC(=O)c1ccccc1O` [Ethyl salicylate], the IC50 cell viability was more than 45.8 µM (ICRF193 0 nM) and more than 45.8 µM (ICRF193 200 nM).

For `OC[C@H]1O[C@@H](n2cnc3c2N=CNC[C@H]3O)C[C@@H]1O` [Pentostatin], the IC50 cell viability is, setting by setting: (ICRF193 0 nM) more than 45.8 µM; (ICRF193 200 nM) more than 45.8 µM.

As for `CCCCCN(C)CCC(O)(P(=O)(O)O)P(=O)(O)O` [Ibandronate sodium hydrate], the IC50 cell viability reads like this: (ICRF193 0 nM) more than 45.8 µM; (ICRF193 200 nM) more than 45.8 µM.

For the compound `CO[C@@]1(NC(=O)CSC[C@@H](N)C(=O)O)C(=O)N2C(C(=O)O)=C(CSc3nnnn3C)CS[C@@H]21` [Cefminox sodium], the IC50 cell viability was more than 45.8 µM (ICRF193 0 nM) and more than 45.8 µM (ICRF193 200 nM).

For `CCOC(=O)c1cc(=O)c2c(OCC(COc3cccc4oc(C(=O)OCC)cc(=O)c34)OC(=O)[C@@H](N)CCCCN)cccc2o1` [Cromoglicate lisetil], the IC50 cell viability (ICRF193 0 nM) was more than 45.8 µM and the IC50 cell viability (ICRF193 200 nM) is more than 45.8 µM.

Consider `CN1CC(=O)N2[C@H](c3ccc4c(c3)OCO4)c3[nH]c4ccccc4c3C[C@@H]2C1=O` [Tadalafil], for which the IC50 cell viability is, setting by setting: (ICRF193 0 nM) more than 45.8 µM; (ICRF193 200 nM) more than 45.8 µM.

In turn, `C[C@]12C=CC(=O)C=C1CC[C@@H]1[C@@H]2[C@@H](O)C[C@@]2(C)[C@H]1CC[C@]2(O)C(=O)CO` [Prednisolone] displayed an IC50 cell viability (ICRF193 0 nM) of more than 45.8 µM and an IC50 cell viability (ICRF193 200 nM) of more than 45.8 µM.

Regarding `O=c1oc2ccccc2c(O)c1Cc1c(O)c2ccccc2oc1=O` [Dicumarol], the IC50 cell viability was more than 45.8 µM (ICRF193 0 nM) and more than 45.8 µM (ICRF193 200 nM).

On to `COCCc1ccc(OCC(O)CNC(C)C)cc1` (centres undefined) [Metoprolol tartrate], for which the IC50 cell viability (ICRF193 0 nM) was more than 45.8 µM and the IC50 cell viability (ICRF193 200 nM) was more than 45.8 µM.

In turn, `CNC(=C[N+](=O)[O-])NCCSCc1ccc(CN(C)C)o1` [Ranitidine] gave an IC50 cell viability (ICRF193 0 nM) of more than 45.8 µM and an IC50 cell viability (ICRF193 200 nM) of more than 45.8 µM.

With `CC(=O)/C=C/C=C1/C2CCC(C2)C1(C)C` (centres undefined) [Bornelone], the IC50 cell viability reads like this: (ICRF193 0 nM) more than 45.8 µM; (ICRF193 200 nM) more than 45.8 µM.

Take `CC(=O)O[C@]1(C(C)=O)CC[C@H]2[C@@H]3C=C(C)C4=CC(=O)CC[C@]4(C)[C@H]3CC[C@@]21C` [Megestrol acetate]: the IC50 cell viability was more than 45.8 µM (ICRF193 0 nM) and more than 45.8 µM (ICRF193 200 nM).

Turning to `C=C(c1ccc(C(=O)O)cc1)c1cc2c(cc1C)C(C)(C)CCC2(C)C` [Bexarotene], the IC50 cell viability (ICRF193 0 nM) was more than 45.8 µM and the IC50 cell viability (ICRF193 200 nM) was more than 45.8 µM.
